{"source": "patent EP0192609A2", "about": "“Acylated hexose derivatives and method for their preparation” (CIBA-GEIGY AG, priority 1985, dated 1986)", "tested_on": "Influenza-Viren", "test": "own studies in mice infected with influenza viruses (prophylaxis and therapy of virus infection, compound alone without vaccine)", "type": "in vivo, Mäuse", "conditions": "per se, i.e. without added vaccine", "excerpt": "Aus der Französischen Patentanmeldung Nr. 74 22 909 mit der Publikationsnummer 2 292 486 sind Muramylpeptide vom Typ der Verbindung N-Acetyl-muramyl-L-alanyl-D-isoglutamin (\"MDP\") bekannt. Diese Verbindungen sind als immunologische Adjuvanzien beschrieben, d.h. sie können in Mischung mit Impfstoffen dazu benützt werden, den Impferfolg zu verbessern. Eigene Untersuchungen, z.B. bei mit Influenza-Viren infizierten Mäusen, haben ergeben, dass N-Acetyl-muramyl-L-alanyl-D-isoglutamin per se, d.h. ohne Beimengung von Impfstoffen, bei der Prophylaxe und Therapie von Virusinfektionen unwirksam ist. Auch ist die Verwendbarkeit strukturell einfacher Muramylpeptide und ihrer Analogen gegen Virusinfektionen bisher nicht beschrieben."}
{"smiles": "CC(=O)N[C@H]1C(O)O[C@H](CO)[C@@H](O)[C@@H]1O[C@H](C)C(=O)N[C@@H](C)C(=O)N[C@H](CCC(=O)O)C(N)=O", "note": "(stereo partly drawn) [N-Acetyl-muramyl-L-alanyl-D-isoglutamin]", "values": [{"measurement": "Wirksamkeit bei der Prophylaxe und Therapie von Virusinfektionen", "value": "unwirksam"}]}
